Data: patent publication US20210179680A1, “POLYPEPTIDE, DERIVATIVES THEREOF, AND APPLICATION THEREOF IN PREPARATION OF DRUGS HAVING RESISTANCE TO PULMONARY FIBROSIS” (priority 2016, published 2021)

Experiments:
Format in all cases: in vivo, C57BL/6 mice
[1] = system: mice with bleomycin-induced pulmonary fibrosis; test: Lung weight index in mice with pulmonary fibrosis; settings: Table 9 groups, 2 mg/kg i.p.; after 28 days; lung weight (mg) divided by body weight (g)
Experimental: (§1) Male C57BL/6 mice were fasted overnight, then anesthetized with 45 mg/kg sodium pentobarbital by injection intraperitoneally (i.p.), and intratracheally injected with bleomycin at a dose of 3 U/kg. The specific operation steps are as follows: cut the neck skin of the mouse with as little trauma as possible, expose the trachea with the assistance of elbow ophthalmic forceps, puncture the trachea and inject about 50 μL of bleomycin into the trachea with a microsyringe, rotate the mouse quickly and stand it upright for 5 minutes in order to make bleomycin evenly enter the left and right lobe, thereby constructing an animal model. The whole operation was performed at a surgical table at about […]. Mice in the sham operation group were intratracheally injected with an equal amount of physiological saline for injection.
Pulmonary fibrosis model was prepared according to the method described in Example 2, and administered in groups according to Table 3. After 28 days, the lungs of the mice were finely stripped and weighed, and a lung weight index was obtained from dividing the lung weight (mg) by the body weight (g) of the mice. […] In FIG. 7, “##” represents that P value is less than 0.01 when the lung weight index of administration group was compared with that of the sham operation group; “*” represents that P value is less than 0.05 when the lung weight index of administration group was compared with that of the bleomycin group; “**” represents that P value is less than 0.01 when the lung weight index of administration group was compared with that of bleomycin group.
Pulmonary fibrosis models were made according to the method described in Example 2 and administered in groups according to Table 9. After 28 days, the lungs of the mice were finely stripped and weighed, and the lung weight (mg) was divided by the body weight (g) of the mice to obtain a lung weight index. […] In FIG. 13, “##” represents that P value is less than 0.01 when the lung weight index of the administration groups were compared with that of the sham operation group; “*” represents that P value is less than 0.05 and “**” represents that P value is less than 0.01 when the lung weight index of the administration groups were compared with bleomycin group.

[2] = system: mice with bleomycin-induced pulmonary fibrosis; test: HE staining pathomorphology and inflammatory score of bleomycin-induced pulmonary fibrosis; settings: Table 9 groups, 2 mg/kg i.p., after 28 days, grade 0-5
Experimental: as §1
General tissue changes and tissue products can be visualized by HE staining method, namely Hematoxylin and Eosin staining method, which is the most commonly used staining method for morphology. Among them, hematoxylin dyeing solution is an alkaline dyeing solution, which mainly makes the chromatin in the nucleus and the ribosome in the cytoplasm purple blue; eosin is an acid dye, which mainly makes the components in the cytoplasm and extracellular matrix red. Pulmonary fibrosis models were made according to the method described in Example 2 and administered in groups according to Table 3. After 28 days, the right lower lobe of lung tissue of the experimental animals was taken, and fixed with 4% (v/v) paraformaldehyde and embedded in paraffin. Section was performed on the largest cross-section of the paraffin block in which the lung tissue embedded, and basic pathological changes was observed through HE staining. […] The administration of polypeptides S1-S11 can reduce lung inflammation caused by bleomycin, and effectively ameliorate lung injury and restore normal lung structure.
The inflammatory grading was observed according to the results of HE staining, and the criteria were as follows (grade 0-5): grade “0”: normal tissue; grade “1”: extremely small inflammatory changes; grade “2”: mild to moderate inflammatory changes without apparent destruction of lung tissue structure; grade “3”: moderate inflammatory injury (thickening of alveolar diaphragm); grade “4”: moderate to severe inflammatory injury with formation of tissue mass, or the normal structure of lung tissue was destroyed by localized pneumonia area; grade “5”: severe inflammatory injury, severe destruction of the localized lung tissue structure, resulting in closure of lumen.
Pulmonary fibrosis models were made according to the method described in Example 2 and administered in groups according to Table 9. After 28 days, the right lower lobe of lung tissue of the experimental animals was taken, and fixed by 4% (v/v) paraformaldehyde and embedded in paraffin. Section was performed on the largest cross-section of the paraffin block in which the lung tissue embedded, and basic pathological changes was observed through HE staining.

[3] = system: mice with bleomycin-induced pulmonary fibrosis; test: Pulmonary function (Flexivent) in mice with pulmonary fibrosis; settings: Table 9 groups, 2 mg/kg i.p.; for Dynamic compliance (mL/cmH2O) / Dynamic elasticity (cmH2O./mL) / Dynamic resistance (cmH2O · s/Ml) / Inspiratory capacity: 28 days later; for pulmonary function of mice with pulmonary fibrosis (in words): FIG. 17
Experimental: as §1
(§2) Pulmonary function is a gold indicator for clinical detection of pulmonary fibrosis in patients. The decline of lung function is generally accompanied by an aggravation of fibrosis, while the improvement of lung function generally represents the recovery of lung tissue structure. Pulmonary fibrosis models were prepared according to the method described in Example 2 and administered in groups according to Table 3. On the 28th day after the construction of the animal model, the mice were anesthetized with sodium pentobarbital (45 mg/kg, i.p.). Lung function was tested by the Flexivent Small-animal respiratory mechanics and the testing methods were TLC and SnapShots (Testing method refers to Lv X, Wang X, Li K, et al. Rupatadine Protects against Pulmonary Fibrosis by Attenuating PAF-Mediated Senescence in Rodents [J]. PloS one, 2013, 8(7): e68631).
as §2, with “lung function also generally represents” for “lung function generally represents”, “to Table 9. 28 days later, the mice” for “to Table 3. On the 28th day after the construction of the animal model, the mice”, “Senescence in Rodents[J]. PloS one,” for “Senescence in Rodents [J]. PloS one,”

Substance | Lung weight index [1] | Inflammatory scoring [2] | Dynamic compliance (mL/cmH2O) [3] [mL/cmH2O] | Dynamic elasticity (cmH2O./mL) [3] [cmH2O./mL] | Dynamic resistance (cmH2O · s/Ml) [3] [cmH2O · s/Ml] | Inspiratory capacity [3] [mL] | pulmonary function of mice with pulmonary fibrosis (in words) [3]
S20: chimeric polypeptide TAT-MR2, amino acid sequence SEQ ID NO: 20 (YGRKKRRQRRRGGHLMACFTCAKKLKKR; chimeric polypeptide TAT-MR2 S20) | 10.0625 | 2.333 | 0.264 | 52.17 | 1.588 | 0.422 | improved
S21: chimeric polypeptide Antp-MR2, amino acid sequence SEQ ID NO: 21 (RQIKIWFQNRRMKWKKGGHLMACFTCAKKLKKR; chimeric polypeptide Antp-MR2 S21) | 11.2125 | 2.667 | 0.264 | 55.33 | 1.355 | 0.616 | improved
